For 15 compounds, DC50 results are on record in US20260200939A1, “MOLECULAR GLUE DEGRADER COMPOUNDS AND USES THEREOF” (Novartis AG, priority 2022, published 2026).

A word on the DC50: it is the concentration at which degradation of the target reaches its halfway point.

The target of one experiment is T1, BRD4 short (Homo sapiens, UniProt O60885).
T1 construct: endogenous in cells; host or cells: HEK293T
The experiment is described as follows: BRD4 (short) degradation assay, Western blotting. The class given is cell-based. Here is the method:
(§1) C33A cells were purchased from American Type Culture Collection (ATCC) and were cultured in Dulbecco's Modified Eagle Medium (DMEM) containing 10% (v/v) fetal bovine serum (FBS) and maintained at 37° C. with 5% CO2. 22RV1 cells were purchased from the ATCC and were cultured in RPMI-1640 Medium containing 10% (v/v) FBS and maintained at 37° C. with 5% CO2. HEK293T cells were obtained from the UC Berkeley Cell Culture Facility and were cultured in DMEM containing 10% (v/v) FBS and maintained at 37° C. with 5% CO2. K562 cells were obtained from the UC Berkeley Cell Culture Facility and were cultured in Iscove's Modified Dulbecco's Medium (IMDM) containing 10% (v/v) FBS and maintained at 37° C. with 5% CO2. MV-4-11 cells were obtained from the ATCC and were cultured in IMDM containing 10% (v/v) FBS and maintained at 37° C. with 5% CO2. A549 cells were obtained from the ATCC and were cultured in F-12K Medium containing 10% (v/v) FBS and maintained at 37° C. with 5% CO2. Mino cells were obtained from the ATCC and were cultured in RPMI-1640 Medium containing 10% (v/v) FBS and maintained at 37° C. with 5% CO2. LNCaP cells were obtained from the ATCC and were cultured in RPMI-1640 Medium containing 10% (v/v) FBS and maintained at 37° C. with 5% CO2. Unless otherwise specified, all cell culture materials were purchased from Gibco. It is not known whether HEK293T cells are from male or female origin.
(§2) Cells were washed twice with cold PBS, scraped, and pelleted by centrifugation (700 g, 5 min, 4° C.). Pellets were resuspended in PBS, sonicated, clarified by centrifugation (12,000 g, 10 min, 4° C.), and lysate was transferred to new low-adhesion microcentrifuge tubes. Proteome concentrations were determined using BCA assay and lysate was diluted to appropriate working concentrations.
(§3) Proteins were resolved by SDS/PAGE and transferred to nitrocellulose membranes using the Trans-Blot Turbo transfer system (Bio-Rad). Membranes were blocked with 5% BSA in Tris-buffered saline containing Tween 20 (TBS-T) solution for 30 min at RT, washed in TBS-T, and probed with primary antibody diluted in recommended diluent per manufacturer overnight at 4° C. After 3 washes with TBS-T, the membranes were incubated in the dark with IR680- or IR800-conjugated secondary antibodies at 1:10,000 dilution in 5% BSA in TBS-T at RT for 1 h. After 3 additional washes with TBST, blots were visualized using an Odyssey Li-Cor fluorescent scanner. The membranes were stripped using ReBlot Plus Strong Antibody Stripping Solution (EMD Millipore) when additional primary antibody incubations were performed. Antibodies used in this study were CDK4 (Abcam ab108357), Vinculin (Abcam ab129002), GAPDH (Cell Signaling Technology 14C10), RNF126 (Santa Cruz Biotechnology sc-376005), BRD4 (Abcam ab128874), Beta Actin (Cell Signaling Technology 13E5), PDE5 (Abcam ab259945), AR-V7 (Abcam ab273500), c-Abl (Santa Cruz Biotechnology sc-23), SMARCA2 (Abcam ab240648), LRRK2 (Abcam ab133474), BTK (Cell Signaling Technology D3H5), Androgen Receptor (Abcam ab133273).

The next experiment has as its target T2, BRD4 long (Homo sapiens, UniProt O60885).
T2 construct: endogenous in cells; host or cells: HEK293T
The experiment is described as follows: BRD4 (long) degradation assay, Western blotting. The class given is cell-based. Here is the method:
as §1, §2, §3

The mark [1] stands for this setting: second value of cell (long/short).
The mark [2] stands for this setting: first value of cell (long/short).

On to `COc1ccc(C(=O)/C(C)=C/C(=O)N2CCN(C(=O)C[C@@H]3N=C(c4ccc(Cl)cc4)c4c(sc(C)c4C)-n4c(C)nnc43)CC2)cc1` [Compound 139, (S,E)-4-(4-(2-(4-(4-chlorophenyl)-2,3,9-trimethyl-6H-thieno[3,2-f][1,2,4]triazolo[4,3-a][1,4]diazepin-6-yl)acetyl)piperazin-1-yl)-1-(4-methoxyphenyl)-2-methylbut-2-ene-1,4-dione], for which the DC50 at BRD4 short (setting [1]) and on BRD4 long (setting [2]) was greater than 1000 nM each time. Take `Cc1sc2c(c1C)C(c1ccc(Cl)cc1)=N[C@@H](CC(=O)N1CCN(C(=O)/C=C/C(=O)c3ccccc3)CC1)c1nnc(C)n1-2` [Compound 140, (S,E)-1-(4-(2-(4-(4-chlorophenyl)-2,3,9-trimethyl-6H-thieno[3,2-f][1,2,4]triazolo[4,3-a][1,4]diazepin-6-yl)acetyl)piperazin-1-yl)-4-phenylbut-2-ene-1,4-dione]: the DC50 on BRD4 short (setting [1]) and on BRD4 long (setting [2]) was less than 100 nM each time. Take `COc1ccc(C(=O)/C=C(\C)C(=O)N2CCN(C(=O)C[C@@H]3N=C(c4ccc(Cl)cc4)c4c(sc(C)c4C)-n4c(C)nnc43)CC2)cc1` [Compound 141, (S,E)-1-(4-(2-(4-(4-chlorophenyl)-2,3,9-trimethyl-6H-thieno[3,2-f][1,2,4]triazolo[4,3-a][1,4]diazepin-6-yl)acetyl)piperazin-1-yl)-4-(4-methoxyphenyl)-2-methylbut-2-ene-1,4-dione]: the half-maximal degradation concentration (DC50) on BRD4 short (setting [1]) and on BRD4 long (setting [2]) was greater than 1000 nM throughout. As to `COc1ccccc1C(=O)/C=C/C(=O)N1CCN(C(=O)C[C@@H]2N=C(c3ccc(Cl)cc3)c3c(sc(C)c3C)-n3c(C)nnc32)CC1` [Compound 142, (S,E)-1-(4-(2-(4-(4-chlorophenyl)-2,3,9-trimethyl-6H-thieno[3,2-f][1,2,4]triazolo[4,3-a][1,4]diazepin-6-yl)acetyl)piperazin-1-yl)-4-(2-methoxyphenyl)but-2-ene-1,4-dione], the DC50 on BRD4 short (setting [1]) and on BRD4 long (setting [2]) was less than 100 nM each time.

`COc1cccc(C(=O)/C=C/C(=O)N2CCN(C(=O)C[C@@H]3N=C(c4ccc(Cl)cc4)c4c(sc(C)c4C)-n4c(C)nnc43)CC2)c1` [Compound 143, (S,E)-1-(4-(2-(4-(4-chlorophenyl)-2,3,9-trimethyl-6H-thieno[3,2-f][1,2,4]triazolo[4,3-a][1,4]diazepin-6-yl)acetyl)piperazin-1-yl)-4-(3-methoxyphenyl)but-2-ene-1,4-dione]: the DC50 on BRD4 short (setting [1]) and on BRD4 long (setting [2]) was less than 100 nM throughout.

Turning to `COc1ccc(C(=O)/C=C(\C#N)C(=O)N2CCN(C(=O)C[C@@H]3N=C(c4ccc(Cl)cc4)c4c(sc(C)c4C)-n4c(C)nnc43)CC2)cc1` [Compound 144, (S,E)-2-(4-(2-(4-(4-chlorophenyl)-2,3,9-trimethyl-6H-thieno[3,2-f][1,2,4]triazolo[4,3-a][1,4]diazepin-6-yl)acetyl)piperazine-1-carbonyl)-4-(4-methoxyphenyl)-4-oxobut-2-enenitrile], the DC50 at BRD4 short (setting [1]) and on BRD4 long (setting [2]) was greater than 1000 nM in each case. As for `Cc1sc2c(c1C)C(c1ccc(Cl)cc1)=N[C@@H](CC(=O)N1CCN(C(=O)/C=C/C(=O)c3ccc(F)cc3)CC1)c1nnc(C)n1-2` [Compound 202, (S,E)-1-(4-(2-(4-(4-chlorophenyl)-2,3,9-trimethyl-6H-thieno[3,2-f][1,2,4]triazolo[4,3-a][1,4]diazepin-6-yl)acetyl)piperazin-1-yl)-4-(4-fluorophenyl)but-2-ene-1,4-dione], the DC50 at BRD4 short (setting [1]) and on BRD4 long (setting [2]) was less than 100 nM in each case. As for `Cc1sc2c(c1C)C(c1ccc(Cl)cc1)=N[C@@H](CC(=O)N1CCN(C(=O)/C=C/C(=O)c3ccc4c(c3)NC(=O)CO4)CC1)c1nnc(C)n1-2` [Compound 203, (S,E)-1-(4-(2-(4-(4-chlorophenyl)-2,3,9-trimethyl-6H-thieno[3,2-f][1,2,4]triazolo[4,3-a][1,4]diazepin-6-yl)acetyl)piperazin-1-yl)-4-(3-oxo-3,4-dihydro-2H-benzo[b][1,4]oxazin-6-yl)but-2-ene-1,4-dione], the DC50 on BRD4 short (setting [1]) and at BRD4 long (setting [2]) was 10 to 100 nM throughout. With `Cc1sc2c(c1C)C(c1ccc(Cl)cc1)=N[C@@H](CC(=O)N[C@H]1C[C@H](NC(=O)/C=C/C(=O)c3ccccc3)C1)c1nnc(C)n1-2` [Compound 204, (E)-N-((1S,3r)-3-(2-((S)-4-(4-chlorophenyl)-2,3,9-trimethyl-6H-thieno[3,2-f][1,2,4]triazolo[4,3-a][1,4]diazepin-6-yl)acetamido)cyclobutyl)-4-oxo-4-phenylbut-2-enamide], the half-maximal degradation concentration (DC50) at BRD4 short (setting [1]) and at BRD4 long (setting [2]) was 10 to 100 nM each time. In the case of `COc1ccc(C(=O)/C=C/C(=O)N2CCN(C(=O)C[C@@H]3N=C(c4ccc(Cl)cc4)c4c(sc(C)c4C)-n4c(C)nnc43)CC2)cn1` [Compound 205, (S,E)-1-(4-(2-(4-(4-chlorophenyl)-2,3,9-trimethyl-6H-thieno[3,2-f][1,2,4]triazolo[4,3-a][1,4]diazepin-6-yl)acetyl)piperazin-1-yl)-4-(6-methoxypyridin-3-yl)but-2-ene-1,4-dione], the half-maximal degradation concentration (DC50) at BRD4 short (setting [1]) and on BRD4 long (setting [2]) was 10 to 100 nM in each case. Consider `COc1ccc(C(=O)/C=C/C(=O)N[C@H]2C[C@@H](NC(=O)C[C@@H]3N=C(c4ccc(Cl)cc4)c4c(sc(C)c4C)-n4c(C)nnc43)C2)cn1` [Compound 206, (E)-N-((1R,3s)-3-(2-((S)-4-(4-chlorophenyl)-2,3,9-trimethyl-6H-thieno[3,2-f][1,2,4]triazolo[4,3-a][1,4]diazepin-6-yl)acetamido)cyclobutyl)-4-(6-methoxypyridin-3-yl)-4-oxobut-2-enamide], for which the DC50 on BRD4 short (setting [1]) and on BRD4 long (setting [2]) was 10 to 100 nM throughout.

For `COc1ccc(C(=O)/C=C/C(=O)N[C@H]2C[C@H](NC(=O)C[C@@H]3N=C(c4ccc(Cl)cc4)c4c(sc(C)c4C)-n4c(C)nnc43)C2)cn1` [Compound 207, (E)-N-((1S,3r)-3-(2-((S)-4-(4-chlorophenyl)-2,3,9-trimethyl-6H-thieno[3,2-f][1,2,4]triazolo[4,3-a][1,4]diazepin-6-yl)acetamido)cyclobutyl)-4-(6-methoxypyridin-3-yl)-4-oxobut-2-enamide], the half-maximal degradation concentration (DC50) at BRD4 short (setting [1]) and on BRD4 long (setting [2]) was 10 to 100 nM in each case.

In the case of `Cc1sc2c(c1C)C(c1ccc(Cl)cc1)=N[C@@H](CC(=O)N1CCN(C(=O)/C=C/C(=O)c3ccc4c(c3)OCC4)CC1)c1nnc(C)n1-2` [Compound 208, (S,E)-1-(4-(2-(4-(4-chlorophenyl)-2,3,9-trimethyl-6H-thieno[3,2-f][1,2,4]triazolo[4,3-a][1,4]diazepin-6-yl)acetyl)piperazin-1-yl)-4-(2,3-dihydrobenzofuran-6-yl)but-2-ene-1,4-dione], the DC50 on BRD4 short (setting [1]) and at BRD4 long (setting [2]) was less than 10 nM each time. Consider `Cc1sc2c(c1C)C(c1ccc(Cl)cc1)=N[C@@H](CC(=O)N[C@H]1C[C@H](NC(=O)/C=C/C(=O)c3ccc4c(c3)OCC4)C1)c1nnc(C)n1-2` [Compound 209, (E)-N-((1S,3r)-3-(2-((S)-4-(4-chlorophenyl)-2,3,9-trimethyl-6H-thieno[3,2-f][1,2,4]triazolo[4,3-a][1,4]diazepin-6-yl)acetamido)cyclobutyl)-4-(2,3-dihydrobenzofuran-6-yl)-4-oxobut-2-enamide], for which the DC50 on BRD4 short (second value of cell, range with lower bound in nM and upper bound in μM) is 100 to 1000 nM; on BRD4 long (first value of cell, range with lower bound in nM and upper bound in μM) it was 100 to 1000 nM. As to `Cc1sc2c(c1C)C(c1ccc(Cl)cc1)=N[C@@H](CC(=O)N[C@H]1C[C@H](NC(=O)/C=C/C(=O)N3CC4(COC4)C3)C1)c1nnc(C)n1-2` [Compound 254, (E)-N-((1S,3r)-3-(2-((S)-4-(4-chlorophenyl)-2,3,9-trimethyl-6H-thieno[3,2-f][1,2,4]triazolo[4,3-a][1,4]diazepin-6-yl)acetamido)cyclobutyl)-4-oxo-4-(2-oxa-6-azaspiro[3.3]heptan-6-yl)but-2-enamide], the DC50 on BRD4 short (setting [1]) is greater than 5000 nM.
